Values joined by “and” are separate entries in the source; they are usually repeats but may differ in a detail not shown here. Equal entries are not always repeated. Toxic doses and inconclusive results are not listed.
Tested on: BDF1 mice, intracerebral B16 melanoma, median survival T/C
Experiment: NCI In Vivo Anticancer Drug Screen. Data for tumor model B16 Melanoma (intracerebral) in B6D2F1 (BDF1) mice
Conditions: endpoint: median survival time, higher = longer survival
Protocol: The antitumor activity of compounds was measured in mice bearing transplantable tumors. Survival or tumor size were measured and the results are expressed as the measurement made in the treated group (T) divided by the measurement made in the vehicle treated control group (C). The tumor model used in this assay is B16 Melanoma (intracerebral) in B6D2F1 (BDF1) mice

[1] = dose: 1.0 mg/kg/injection, schedule: Q01DX009 (ip), vehicle: saline
[2] = dose: 2.0 mg/kg/injection, schedule: Q01DX009 (ip), vehicle: saline
[3] = dose: 25.0 mg/kg/injection, schedule: Q01DX009 (ip), vehicle: saline
[4] = dose: 100.0 mg/kg/injection, schedule: Q01DX009 (ip), vehicle: saline
[5] = dose: 200.0 mg/kg/injection, schedule: Q01DX009 (ip), vehicle: saline
[6] = dose: 8.0 mg/kg/injection, schedule: Q01DX009 (ip), vehicle: Klucel (hydroxypropylcellulose) (HPC)
[7] = dose: 16.0 mg/kg/injection, schedule: Q01DX009 (ip), vehicle: Klucel (hydroxypropylcellulose) (HPC)
[8] = dose: 32.0 mg/kg/injection, schedule: Q01DX009 (ip), vehicle: Klucel (hydroxypropylcellulose) (HPC)
[9] = dose: 64.0 mg/kg/injection, schedule: Q01DX009 (ip), vehicle: Klucel (hydroxypropylcellulose) (HPC)
[10] = dose: 128.0 mg/kg/injection, schedule: Q01DX009 (ip), vehicle: Klucel (hydroxypropylcellulose) (HPC)
[11] = dose: 0.25 mg/kg/injection, schedule: Q01DX009 (ip), vehicle: saline
[12] = dose: 0.5 mg/kg/injection, schedule: Q01DX009 (ip), vehicle: saline

In the case of `NC(=O)N(CCCl)N=O`, the T/C (dose: 1.0 mg/kg/injection, schedule: Q01DX001 (ip), vehicle: saline + alcohol) is reported as 102 % of control, the T/C (dose: 2.0 mg/kg/injection, schedule: Q01DX001 (ip), vehicle: saline + alcohol) is reported as 112 % of control and the T/C (dose: 4.0 mg/kg/injection, schedule: Q01DX001 (ip), vehicle: saline + alcohol) is reported as 121 % of control.
`CC(C)=CCC1=C(O)c2ccccc2C(=O)C1=O` was tested, and the T/C (dose: 32.0 mg/kg/injection, schedule: Q01DX005 (ip), vehicle: Klucel (hydroxypropylcellulose) (HPC)) was 98 % of control, the T/C (dose: 64.0 mg/kg/injection, schedule: Q01DX005 (ip), vehicle: Klucel (hydroxypropylcellulose) (HPC)) was 90 % of control and 96 % of control and the T/C (dose: 128.0 mg/kg/injection, schedule: Q01DX005 (ip), vehicle: Klucel (hydroxypropylcellulose) (HPC)) was 87 % of control and 105 % of control. The T/C (dose: 256.0 mg/kg/injection, schedule: Q01DX005 (ip), vehicle: Klucel (hydroxypropylcellulose) (HPC)) was 90 % of control and 96 % of control.
With `CN(C)c1nc(N(C)C)nc(N(C)C)n1` the T/C (dose: 100.0 mg/kg/injection, schedule: Q01DX005 (ip), vehicle: saline with Tween-80) was 91 % of control.
With `O=CC(NC(=O)N(CCCl)N=O)C(O)C(O)C(O)CO` (stereo not drawn) the T/C [1] was 97 % of control, the T/C [2] was 99 % of control and the T/C (dose: 4.0 mg/kg/injection, schedule: Q01DX009 (ip), vehicle: saline) was 111 % of control. For the same compound, the T/C (dose: 7.5 mg/kg/injection, schedule: Q01DX001 (ip), vehicle: saline with Tween-80) was 92 % of control, the T/C (dose: 8.0 mg/kg/injection, schedule: Q01DX009 (ip), vehicle: saline) was 117 % of control and the T/C (dose: 15.0 mg/kg/injection, schedule: Q01DX001 (ip), vehicle: saline with Tween-80) was 119 % of control. For the same compound, the T/C (dose: 17.8 mg/kg/injection, schedule: Q01DX001 (ip), vehicle: Klucel (hydroxypropylcellulose) (HPC)) was 120 % of control, the T/C (dose: 26.7 mg/kg/injection, schedule: Q01DX001 (ip), vehicle: Klucel (hydroxypropylcellulose) (HPC)) was 118 % of control and the T/C (dose: 30.0 mg/kg/injection, schedule: Q01DX001 (ip), vehicle: saline with Tween-80) was 103 % of control.
With `OC(CBr)C(O)C(O)C(O)CBr` (stereo not drawn) the T/C [3] was 92 % of control, the T/C (dose: 50.0 mg/kg/injection, schedule: Q01DX009 (ip), vehicle: saline) was 100 % of control and 108 % of control (2×) and the T/C [4] was 116 % of control and 117 % of control and 100 % of control. For the same compound, the T/C [5] was 117 % of control and 104 % of control and the T/C (dose: 400.0 mg/kg/injection, schedule: Q01DX009 (ip), vehicle: saline) was 120 % of control.
With `CN(Cc1cnc2nc(N)nc(N)c2n1)c1c(Cl)cc(C(=O)NC(CCC(=O)O)C(=O)O)cc1Cl` (stereo not drawn) the T/C [6] was 100 % of control, the T/C [7] was 110 % of control and the T/C [8] was 94 % of control. The T/C [9] was 96 % of control and the T/C [10] was 100 % of control.
With `Nc1ncnc2c1ncn2C1OC(COP(=O)(O)O)C(O)C1O` (stereo not drawn) the T/C (dose: 1600.0 mg/kg/injection, schedule: Q01DX009 (ip), vehicle: saline) was 99 % of control and 102 % of control.
`COc1ccc2c(c1O)-c1cccc3c1[C@@H](C2)N(CCCl)CC3` was tested, and the T/C (dose: 8.0 mg/kg/injection, schedule: Q01DX005 (ip), vehicle: saline) was 94 % of control and the T/C (dose: 16.0 mg/kg/injection, schedule: Q01DX005 (ip), vehicle: saline) was 88 % of control.
With `CO[C@H](C(=O)[C@@H](O)[C@@H](C)O)[C@@H]1Cc2cc3cc(OC4CC(OC5CC(O)C(O)C(C)O5)C(O)C(C)O4)c(C)c(O)c3c(O)c2C(=O)[C@H]1OC1CC(OC2CC(OC3CC(C)(O)C(O)C(C)O3)C(O)C(C)O2)C(O)C(C)O1` (stereo partly drawn) the T/C (dose: 0.13 mg/kg/injection, schedule: Q01DX009 (ip), vehicle: saline) was 91 % of control and 95 % of control, the T/C [11] was 109 % of control and 112 % of control and the T/C [12] was 91 % of control and 100 % of control. For the same compound, the T/C [1] was 87 % of control and 90 % of control.
With `O=C1NC2(CCCCC2)C(=O)N1CCN(CCCl)CCCl` the T/C (dose: 1.5 mg/kg/injection, schedule: Q01DX009 (ip), vehicle: saline with Tween-80) was 97 % of control, the T/C (dose: 3.0 mg/kg/injection, schedule: Q01DX009 (ip), vehicle: saline with Tween-80) was 103 % of control and the T/C (dose: 6.0 mg/kg/injection, schedule: Q01DX009 (ip), vehicle: saline with Tween-80) was 106 % of control. For the same compound, the T/C (dose: 12.0 mg/kg/injection, schedule: Q01DX009 (ip), vehicle: saline with Tween-80) was 103 % of control.
In the case of `CCCCCCC(=O)O[C@H]1CC[C@H]2[C@@H]3CCC4=CC(=O)CC[C@]4(C)[C@H]3CC[C@]12C`, the T/C [6] is reported as 107 % of control, the T/C [7] is reported as 98 % of control and the T/C [8] is reported as 100 % of control. For the same compound, the T/C [9] was 96 % of control and the T/C [10] was 103 % of control.
With `COc1ccc(CC2C(=O)NC(C)C(=O)N(C)C3C(=O)N(C)C(Cc4ccc(O)c(c4)Oc4ccc(cc4)C3O)C(=O)NC(C)C(=O)NC(C)C(=O)N2C)cc1` (stereo not drawn) the T/C (dose: 0.12 mg/kg/injection, schedule: Q01DX009 (ip), vehicle: Klucel (hydroxypropylcellulose) (HPC)) was 97 % of control and 102 % of control, the T/C (dose: 0.12 mg/kg/injection, schedule: Q01DX009 (ip), vehicle: saline) was 93 % of control and the T/C (dose: 0.25 mg/kg/injection, schedule: Q01DX009 (ip), vehicle: Klucel (hydroxypropylcellulose) (HPC)) was 100 % of control and 108 % of control. For the same compound, the T/C [11] was 103 % of control, the T/C (dose: 0.5 mg/kg/injection, schedule: Q01DX009 (ip), vehicle: Klucel (hydroxypropylcellulose) (HPC)) was 94 % of control and 97 % of control and 100 % of control and the T/C [12] was 102 % of control. The T/C (dose: 1.0 mg/kg/injection, schedule: Q01DX009 (ip), vehicle: Klucel (hydroxypropylcellulose) (HPC)) was 90 % of control and 94 % of control and 100 % of control, the T/C [1] was 98 % of control and the T/C [2] was 100 % of control.
With `CN(C)N=Nc1ccnc2ccc(Br)cc12` the T/C (dose: 3.12 mg/kg/injection, schedule: Q01DX009 (ip), vehicle: other) was 102 % of control, the T/C (dose: 6.25 mg/kg/injection, schedule: Q01DX009 (ip), vehicle: other) was 102 % of control and the T/C (dose: 12.5 mg/kg/injection, schedule: Q01DX009 (ip), vehicle: other) was 97 % of control. The T/C (dose: 25.0 mg/kg/injection, schedule: Q01DX009 (ip), vehicle: other) was 107 % of control and the T/C (dose: 50.0 mg/kg/injection, schedule: Q01DX009 (ip), vehicle: other) was 102 % of control.
`CSCS(=O)C[C@H](CO)NC(=O)/C=C/c1c(C)[nH]c(=O)[nH]c1=O` (stereo partly drawn) was tested, and the T/C (dose: 0.06 mg/kg/injection, schedule: Q01DX005 (ip), vehicle: Klucel (hydroxypropylcellulose) (HPC)) was 97 % of control, the T/C (dose: 0.12 mg/kg/injection, schedule: Q01DX005 (ip), vehicle: Klucel (hydroxypropylcellulose) (HPC)) was 98 % of control and the T/C (dose: 0.25 mg/kg/injection, schedule: Q01DX005 (ip), vehicle: Klucel (hydroxypropylcellulose) (HPC)) was 103 % of control. For the same compound, the T/C (dose: 0.5 mg/kg/injection, schedule: Q01DX005 (ip), vehicle: Klucel (hydroxypropylcellulose) (HPC)) was 98 % of control.
With `COc1ccc2cc1Oc1ccc(cc1)C[C@H]1c3cc(c(OC)cc3CCN1C)Oc1c(OC)c(OC)cc3c1[C@H](C2)N(C)CC3` the T/C (dose: 50.0 mg/kg/injection, schedule: Q01DX005 (ip), vehicle: Klucel (hydroxypropylcellulose) (HPC)) was 100 % of control, the T/C (dose: 100.0 mg/kg/injection, schedule: Q01DX005 (ip), vehicle: Klucel (hydroxypropylcellulose) (HPC)) was 98 % of control and 103 % of control and the T/C (dose: 200.0 mg/kg/injection, schedule: Q01DX005 (ip), vehicle: Klucel (hydroxypropylcellulose) (HPC)) was 119 % of control and 101 % of control. The T/C (dose: 400.0 mg/kg/injection, schedule: Q01DX005 (ip), vehicle: Klucel (hydroxypropylcellulose) (HPC)) was 95 % of control and 113 % of control.
With `CCC(=O)O[C@H]1CC[C@H]2[C@@H]3CCC4=CC(=O)CC[C@]4(C)[C@H]3CC[C@]12C` the T/C [6] was 99 % of control, the T/C [7] was 116 % of control and the T/C [8] was 111 % of control. For the same compound, the T/C [9] was 99 % of control, the T/C [10] was 123 % of control and the T/C (dose: 256.0 mg/kg/injection, schedule: Q01DX009 (ip), vehicle: Klucel (hydroxypropylcellulose) (HPC)) was 97 % of control. For the same compound, the T/C (dose: 512.0 mg/kg/injection, schedule: Q01DX009 (ip), vehicle: Klucel (hydroxypropylcellulose) (HPC)) was 104 % of control.
With `CNNCc1ccc(C(=O)NC(C)C)cc1` the T/C [3] was 120 % of control, the T/C (dose: 75.0 mg/kg/injection, schedule: Q01DX009 (ip), vehicle: water) was 154 % of control and the T/C [4] was 163 % of control. For the same compound, the T/C (dose: 150.0 mg/kg/injection, schedule: Q01DX009 (ip), vehicle: water) was 163 % of control, the T/C [5] was 168 % of control and 170 % of control and the T/C (dose: 300.0 mg/kg/injection, schedule: Q01DX009 (ip), vehicle: water) was 100 % of control.

Source: PubChem BioAssay AID196 (DTP/NCI, 2004)
